In one assay the test system is PN cells. Kind of assay: BrdU cell proliferation assay. The format is cell-based, mouse. The following applies: 1 and 10 μM vs DMSO-treated cells. From the text:
FIG. 3A, FIG. 3B, FIG. 3C, and FIG. 3D show cell proliferation is reduced by VX-809. (FIG. 3A-FIG. 3B) Proliferation in kidneys of Pkd1^fl/fl; Pax8^rtTA; TetO-cre mice. Representative images of Ki67 (a cellular marker for proliferation) staining of PN21 kidney sections from DMSO- and VX-809-treated mice. Arrows indicate Ki67-positive cells. Pictures were acquired with a Zeiss microscope equipped with 20× objective. (FIG. 3C) Summary data for Ki67-positive cells. Columns represent averages±standard errors of DMSO (vehicle)-treated (n=3) and VX-809-treated (n=3) mice. Statistical analysis was performed using a two-tailed Student's t test. (FIG. 3D) Proliferation in PN cells. PN cells were treated with VX-809 or DMSO). The bromodeoxyuridine (BrdU) concentration in the cells was measured by using a BrdU cell proliferation assay kit (Millipore Sigma #2750) according to the manufacturer's protocol. Columns represent averages±SEs of the OD of BrdU at 450/550 […]. Data were analyzed using Student's t-test, with n=5-7. Methods were described previously (62). […]; **P<0.01;
A hallmark of the cysts in ADPKD is an increase in proliferation in response to cAMP (23). Therefore, it was determined whether VX-809 would affect proliferation.

The next assay relates to AC6. Kind of assay: Western blot of adenylyl cyclase 6 expression. The format is cell-based, mouse. The following applies: PN cells treated with VX-809. On the procedure: FIG. 4A, FIG. 4B, FIG. 4C, FIG. 4D, and FIG. 4E show (FIG. 4A-FIG. 4B) cAMP levels are reduced by VX-809. (FIG. 4A) cAMP levels in mouse tissue were reduced by VX-809. The kidney samples (n=6) analyzed were taken from those depicted in FIG. 1. (FIG. 4B) Confluent PN and PH cells were treated with VX-809 (10 μM) or DMSO for 16 h and then treated with forskolin (100 μM) for 30 min before the cells were harvested for the assay. Columns represent means±SEM. Statistical analysis was performed using a two-tailed Student's t-test. Each set of data is from three individual wells; Note that resting cAMP is greater in PN vs PH cells as previously shown (25). Also note that forskolin caused a large increase in cAMP. A smaller increase occurred with IBMX. However, the increase induced by forskolin alone was similar to that by IBMX plus forskolin. […] (FIG. 4C, FIG. 4D, and FIG. 4E) Adenylyl cyclase expression. (FIG. 4C) Western blot showing the expression of adenylyl cyclase (AC) 6 and AC3 in treated and control PN cells. (FIG. 4D-FIG. 4E) Columns represent means±SEM of the AC3 and AC6 expression. The data were analyzed by non-parametric t-test. The experiment was repeated four times. For all graphs, *P<0.05, **P<0.01, and ***P<0.001;
There are two classes of adenylyl cyclases that are regulated by intracellular Ca^2+: one class is activated, and the other inhibited. […]

The subject of assay [1] is cAMP in PC1 conditional knockout mouse kidneys. The assay is described as follows: cAMP levels in mouse kidney tissue. The following applies: kidney samples from mice of FIG. 1 (VX-809 30 mg/kg). In kind it is in vivo. How it is done: FIG. 4A, FIG. 4B, FIG. 4C, FIG. 4D, and FIG. 4E show (FIG. 4A-FIG. 4B) cAMP levels are reduced by VX-809. (FIG. 4A) cAMP levels in mouse tissue were reduced by VX-809. The kidney samples (n=6) analyzed were taken from those depicted in FIG. 1. (FIG. 4B) Confluent PN and PH cells were treated with VX-809 (10 μM) or DMSO for 16 h and then treated with forskolin (100 μM) for 30 min before the cells were harvested for the assay. Columns represent means±SEM. Statistical analysis was performed using a two-tailed Student's t-test. Each set of data is from three individual wells; Note that resting cAMP is greater in PN vs PH cells as previously shown (25). Also note that forskolin caused a large increase in cAMP. […] The data were analyzed by non-parametric t-test. […]
It has been shown previously in both animal and cell culture models of ADPKD that cells lacking functional PC1 have elevated cAMP levels when compared to normal (24). To assess the effect of CFTR correctors, cAMP activity was measured in PC1 conditional knockout mouse kidneys and in PN cells that were either left untreated or treated with VX-809. […]
Confluent cells were treated with VX-809 (10 μM) or DMSO for 16 h before being harvested for assay. Cyclic AMP levels were measured with a direct cAMP Enzyme Immunoassay Kit (Sigma, # CA200) according to the manufacturer's protocol. The results are expressed as pmole/ml. […]
For orientation: Cyclic AMP is a second messenger, typically raised through Gs and lowered through Gi signalling.

The subject of the next assay is Hsp27. Kind of assay: Cycloheximide chase, disappearance of Hsp27 in PN cells. The format is cell-based, mouse. The following applies: VX-809 10 μM with cycloheximide 25 μM. On the procedure: FIG. 9A, FIG. 9B, FIG. 9C, FIG. 9D, FIG. 9E, FIG. 9F, FIG. 9G, and FIG. 9H show Hsp27, HSp70, and Hsp90 expression in PN cells treated with VX-809 and/or cycloheximide. (A) Pkd1 null (PN) cells were treated with VX-809 (10 μM) and/or with cycloheximide (25 μM) for indicated time points before being harvested for the assay. (FIG. 9A) Western blot showing expression of Hsp27, Hsp70, and Hsp90 in VX-809-(16 h), cycloheximide-treated, or control PN cells. ((FIG. 9B. (FIG. 9C, and (FIG. 9D) Columns represent averages±standard errors of Hsp27, Hsp70, and Hsp90 expression in cells treated with VX-809 and/or cycloheximide. ((FIG. 9E) Western blot showing expression of Hsp27, Hsp70, and Hsp90 in PN cells treated with VX-809+cycloheximide or control PN cells. ((FIG. 9F, (FIG. 9G, and (FIG. 9H) Columns represent averages±standard errors of Hsp27, Hsp70, and Hsp90 expression in cells treated only with cycloheximide or in control PN cells. Data were analyzed by non-parametric t-test. The experiments were repeated 3-5 times. *P<0.05, **P<0.01;
To gain more insight into the mechanism whereby VX-809 alters Hsp protein levels, translation was inhibited by using cycloheximide (35) and the disappearance of the three Hsps was monitored. […] Hsp 90 was reduced by approximately 25%, and Hsp27 was unchanged.

The values that follow come from patent US20200289482A1, “CYSTIC FIBROSIS TRANSMEMBRANE CONDUCTANCE REGULATOR MODULATORS FOR TREATING AUTOSOMAL DOMINANT POLYCYSTIC KIDNEY DISEASE” (The Johns Hopkins University, priority 2017, published 2020).

Turning to lumacaftor [VX-809], the “cell proliferation (BrdU)” value in the assay with PN cells was “significantly inhibit cell proliferation”. In addition, in the assay on AC6, the “AC6 regulation (expression)” value is on record as “not AC6”. Moreover, in assay [1], the “cAMP levels in mouse kidneys” value was “significantly decreased the cAMP levels”. Moreover, the “Hsp27 level over the 8-h period” value with Hsp27 was “unchanged”.
